Measured values from patent publication US20230287316A1, “INTER-ORGAN PLATFORM WITH TISSUE-SPECIFIC NICHES FOR A MICROPHYSIOLOGICAL SYSTEM ON A CHIP” (THE TRUSTEES OF COLUMBIA UNIVERSITY IN THE CITY OF NEW YORK, priority 2020, published 2023).

How the values were obtained:
[1] = tested on: metastatic SK-N-MC cell line; assay: Linsitinib 12 µM on metastatic ES cell monolayers, luminescence viability; assay type: cell-based, human; details: 12 µM over 72 hours
Description: (§1) MTT viability assay was used to determine drug toxicity, with luminescence generated by viable cells measured at the endpoint (10^4 cells per well, mean± s.e.m., n = 3). […] In order to determine cancer cell viability, cells were lysed and treated with luciferin using a Bright-Glo™ assay, with subsequent luminescence measured (10^4 cells per well, mean± s.e.m., n = 3).
(§2) Both culture media were supplemented with 10% FBS and 1 % penicillin/streptomycin.
(§3) Cell viability was analyzed using a previously established protocol.^59 Cancer cell viability was measured for GFP-Luciferase labelled cancer cells using ONE-Glo luciferase substrate that was prepared according to manufacturer’s protocol (Promega). Samples were collected following 3, 7, and 21 days cycles of linsitinib treatment. Where noted, longitudinal cell viability was also assessed using luminescence, though at the cost of signal strength. Briefly, in vivo grade VivoGlo™ Luciferin (Promega) was made at a 200x stock concentration (30 mg/ml) in water, added to sample culture media at a 1:200 dilution, and scanned using a spectrophotometer (Biotek). Some of the IC50 values were determined using cell viability data generated using an MTT assay (RealTime-Glo™ MT Cell Viability Assay, Promega) that were analyzed according to manufacturer’s protocol.

[2] = tested on: ES cell monolayers; assay: Linsitinib dose response in ES cell monolayers (MTT and luminescence viability); assay type: cell-based, human; details: 0-100 µM over 72 hours
Description: as §1, §3

[3] = tested on: non-metastatic RD-ES cell line; assay: Linsitinib 12 µM on non-metastatic ES cell monolayers, luminescence viability; assay type: cell-based, human; details: 12 µM over 72 hours
Description: as §1, §2, §3

[4] = tested on: metastatic TE-ES (SK-N-MC) bone tumor; assay: Linsitinib on metastatic engineered ES bone tumors (TE-ES) cultured in isolation; assay type: cell-based, human; details: 12 µM
Description: FIGS. 32A-D show aspects of responses of human engineered bone ES tumors and cardiac tissues to linsitinib in isolated platform chambers. […] Luminescence as a function of cancer cell number and viability was measured (mean± s.e.m., n = 6 for day 3, and n = 3 for day 7 and 21).
Supernatants were collected from each individual sample across the duration of the drug treatments and were analyzed for osteoblast function (OCN, OPN) and for cytotoxicity (LDH) (mean± s.e.m., n = 3).
Two weeks following the initiation of osteogenic differentiation, aggregates of ES tumor cells were prepared as described previously, using 0.3 × 10^6 cells per aggregate. After 1 week of culture, corresponding to the end of bone tissue culture (3 weeks), the primary ES cell aggregates were placed into the engineered bone constructs (3 aggregates per construct, placed apart of each other). Tumor models were established for two different types of primary ES cells: non-metastatic (RD-ES) and metastatic (SK-N-MC). Tissue engineered RD-ES and SK-N-MC tumors were cultured in the RPMI and EMEM media, respectively, supplemented with 10% FBS and 1% penicillin/streptomycin. Bone constructs cultured without tumor cell aggregates (TE-bone) in RPMI and EMEM media were used as controls.
as §3
(§4) Osteocalcin (OCN), osteopontin (OPN), and lactic acid dehydrogenase (LDH) secreted levels were all measured using a similar approach. Supernatants were isolated from controls and drug treated TE-ES and equal amounts were used in each assay according to the manufacturer’s instructions. For OCN a Human Osteocalcin Quantikine^R ELISA (R&D Systems) was used, while for OPN it was a Human Osteopontin Quantikine^R ELISA (R&D Systems). LDH secretion was determined using a Lactate Dehydrogenase Assay Kit (Colorimetric; Abcam).

[5] = target: T1, phosphorylated IGF-1R (Homo sapiens, UniProt P08069); assay: Human Phospho-IGF1R ELISA in ES cell monolayers; assay type: cell-based; details: 12 µM for 6 hours, non-metastatic and metastatic ES cell lines
T1 construct: both RD-ES and SK-N-MC monolayers were treated with 12 µM linsitinib for 6 hours, lysed; endogenous in cells; host or cells: RD-ES (ATCC HTB-166) and SK-N-MC (ATCC HTB-10) Ewing sarcoma cell lines
T1 sequence (P08069 31-1367): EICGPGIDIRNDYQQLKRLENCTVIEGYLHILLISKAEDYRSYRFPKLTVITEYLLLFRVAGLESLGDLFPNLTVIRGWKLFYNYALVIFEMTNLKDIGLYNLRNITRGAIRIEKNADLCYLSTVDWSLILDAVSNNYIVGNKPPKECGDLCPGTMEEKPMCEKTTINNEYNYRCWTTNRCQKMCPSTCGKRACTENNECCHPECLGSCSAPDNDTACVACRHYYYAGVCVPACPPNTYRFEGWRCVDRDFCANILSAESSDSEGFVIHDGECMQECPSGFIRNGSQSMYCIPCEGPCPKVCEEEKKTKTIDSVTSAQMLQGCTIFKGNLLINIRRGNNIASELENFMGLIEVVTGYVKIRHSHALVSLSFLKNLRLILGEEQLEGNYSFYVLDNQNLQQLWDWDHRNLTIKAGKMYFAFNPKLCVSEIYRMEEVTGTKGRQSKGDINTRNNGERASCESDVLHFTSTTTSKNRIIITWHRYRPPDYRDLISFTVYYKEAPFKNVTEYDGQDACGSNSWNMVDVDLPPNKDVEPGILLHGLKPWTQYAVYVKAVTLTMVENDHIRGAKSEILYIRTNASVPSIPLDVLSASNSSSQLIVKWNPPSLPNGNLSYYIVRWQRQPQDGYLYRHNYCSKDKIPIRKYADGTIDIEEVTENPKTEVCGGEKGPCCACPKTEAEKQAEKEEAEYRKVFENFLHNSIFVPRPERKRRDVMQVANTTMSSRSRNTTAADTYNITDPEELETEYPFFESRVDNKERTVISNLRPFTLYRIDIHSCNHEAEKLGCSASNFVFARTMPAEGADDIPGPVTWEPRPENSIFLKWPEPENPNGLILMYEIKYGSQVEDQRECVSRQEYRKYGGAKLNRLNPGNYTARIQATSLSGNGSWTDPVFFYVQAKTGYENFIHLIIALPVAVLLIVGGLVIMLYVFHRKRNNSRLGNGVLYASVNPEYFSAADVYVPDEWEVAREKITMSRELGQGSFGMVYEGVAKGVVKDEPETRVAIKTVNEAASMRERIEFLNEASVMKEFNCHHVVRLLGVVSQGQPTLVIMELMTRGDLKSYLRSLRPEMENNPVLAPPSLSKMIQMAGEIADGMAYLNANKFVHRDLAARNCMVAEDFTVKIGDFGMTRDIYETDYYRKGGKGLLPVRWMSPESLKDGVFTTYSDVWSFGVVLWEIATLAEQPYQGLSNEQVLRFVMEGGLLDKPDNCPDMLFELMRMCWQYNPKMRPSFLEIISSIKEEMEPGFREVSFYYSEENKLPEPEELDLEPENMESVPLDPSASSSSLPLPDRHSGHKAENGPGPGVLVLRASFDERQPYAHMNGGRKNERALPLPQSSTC

[6] = tested on: cardiac tissues; assay: Linsitinib on cardiac tissue in the integrated platform with microfluidic perfusion; assay type: cell-based, human
Description: The TE-ES and cardiac tissues were then cultured in the integrated platform with perfusion of mixed media. Linsitinib was introduced into the reservoir and delivered to tissues via circulation of perfusate and diffusion into the tissues.
FIGS. 35A-E show aspects of responses of human engineered bone ES tumors and cardiac tissues to linsitinib in the integrated platform with microfluidic perfusion. FIGS. 35A and 35B show the responses when non-metastatic ES bone tumors and cardiac tissues were exposed to linsitinib (12 µM) over a period of 72 hours in either isolated culture or within the perfused integrated platform. Luminescence (FIG. 35A) and LDH secretion (FIG. 35B) as functions of cancer cell number and viability as well as cytotoxicity, respectively, were measured (mean± s.e.m., n = 3).
To measure the cardiac contractility online, we took contractility videos of the tissues that were analyzed using the native MATLAB code we previously developed. Tissue contractility was measured by tracking the change in tissue area as a function of time. Acquired video frames were inverted and an automated intensity threshold was used to identify cell location in the video frame. First, a baseline time point in the video corresponding to a relaxed tissue state was selected. Absolute differences in cell area from the baseline frame were then calculated to create a time course of cell area changes over time. The resulting time courses were analyzed using a native MATLAB (MATHWorks) automated peak finding algorithm to determine locations of maximum cell contractions in the time profiles. Beat period lengths were determined from the length of time between the pairs of local maxima, and the beat frequencies were determined by inverting beat periods. The rate of proarrhythmic events was calculated by the ratio of the number of proarrhythmic events over the total number of beats.

[7] = tested on: non-metastatic ES bone tumor tissues; assay: Linsitinib on non-metastatic ES bone tumor in the integrated platform with microfluidic perfusion; assay type: cell-based, human; details: 12 µM
Description: as §3, §4

[8] = cited from earlier work
[9] = clinical trials of other types of cancer

Compound: C[C@]1(O)C[C@@H](c2nc(-c3ccc4ccc(-c5ccccc5)nc4c3)c3c(N)nccn32)C1 [linsitinib]
- drug efficacy (luminescence viability) [1]: significant drug efficacy
- IC50 (MTT viability assay) [2]: two orders of magnitude lower than the effective plasma concentration observed in patients
- IC50 ([2]; Homo sapiens, GFP-luciferase cells, read-out: IC50 (luminescence as a proxy for cell viability)): ~12 µM
- drug efficacy (luminescence viability) [3]: significant drug efficacy
- LDH secretion (cytotoxicity) ([4]; 3-week regimen, supernatants): spiked
- Osteocalcin secretion ([4]; 3-week regimen, supernatants): decreased
- cancer cell population (luminescence) ([4]; 21-day clinical treatment regimen): decrease in drug efficacy, as the cancer cell population continued to expand over the 21-day treatment cycle
- drug response (luminescence) ([4]; after 3 days): significant drug response
- osteopontin secretion ([4]; throughout the 21 days): decreased similar to osteocalcin
- levels of phosphorylated IGF-1R [5]: significant decreases
- rate of proarrhythmic events ([6]; 12 µM, integrated model): approximately 11%
- beat frequency ([6]; 12 µM, integrated platform): did not observe linsitinib-mediated changes in beat frequency
- response to subsequent isoproterenol exposure ([6]; after 12 µM linsitinib, integrated platform): expected inotropic response
- overall cardiotoxicity ([6]; integrated platform): mild cardiotoxicity
- drug response (luminescence), immediate exposure ([7]; 3 days, directly into the TE-ES tissue chamber): fast response to the drug
- drug response (luminescence), diffused exposure ([7]; 3 days, introduced into the circulation): no response
- drug response (luminescence) ([7]; 3 days, linsitinib into the reservoir): insignificant drug response
- Secretion of LDH, vehicle vs linsitinib treated ([7]; 72 hours): no significant difference
- progression of ES in the clinical trial ([8]; Phase II trial, patients with refractory or relapsed ES): unable to stop progression of ES
- Cmax ([8]; blood plasma, patients, read-out: Cmax clinical concentration): 12 µM
- atrial fibrillation [8, 9]: 3.75 - 5%
- tachycardia [8, 9]: 3.75-5 % of patients
- half-life ([8]; known value): approximately 5 hours
